Results: paper PMC7580251 (Clinical cancer research : an official journal of the …, 2017)

How the values were obtained:
patients = details: cited from earlier work
[1] = tested on: recurrent, platinum-resistant ovarian cancer; details: cited from earlier work
[2] = Plasma pharmacokinetics of veliparib and topotecan; assay type: in vivo, human; details: for half-life / AUC(0-t): human, plasma; for AUC(0-t): oral
[3] = tested on: poly(ADP-ribose) (PAR) levels in peripheral blood mononuclear cells; experiment: PAR levels in PBMCs by sandwich ELISA; assay type: in vivo, human; details: topotecan alone, Day 30 (Cycle 2 Day 2); of 20 quantifiable pairs
[4] = daily 1-hour infusion for 5 consecutive days, recurrent platinum-resistant ovarian cancer

O=C(c1cc(Cc2n[nH]c(=O)c3ccccc23)ccc1F)N1CCN(C(=O)C2CC2)CC1 [olaparib]
RP2D of the combination, olaparib dose (patients; per dose, twice daily days 1–5, with irinotecan every two weeks): 50 mg

CC[C@@]1(O)C(=O)OCc2c1cc1n(c2=O)Cc2cc3c(CN(C)C)c(O)ccc3nc2-1 [topotecan]
median overall survival [1, 4]: 57 weeks
overall response rate [1, 4]: 17%
women with myelosuppression ([1]; daily x 5 topotecan): up to 75%
response rate ([1]; phase II, days 1, 8, 15 of a 28-day cycle, platinum refractory/resistant ovarian cancer): 18%
grade 4 toxicities ([1]; phase II, days 1, 8, 15 of a 28-day cycle, myelosuppression mild): no grade 4 toxicities observed
single-agent MTD (patients; weekly topotecan (days 2, 9 and 16)): 4 mg/m^2
half-life ([2]; iv): 2.7 ± 0.6 h
plasma clearance, mean (± SD) ([2]; topotecan administered alone on Cycle 2, iv): 10.1 ± 3.8 L/hr/m^2
sample pairs with decreased PAR levels [3]: 7
sample pairs with increased PAR levels [3]: 11
sample pairs with unchanged PAR levels [3]: 2

C[C@]1(c2nc3c(C(N)=O)cccc3[nH]2)CCCN1 [veliparib]
single agent MTD (patients; veliparib bid): 400 mg
AUC(0-t) ([2]; 10 mg): 351 ± 69 ng·h/mL
AUC(0-t) ([2]; 300 mg): 15000 ± 3090 ng·h/mL
half-life ([2]; po): 6.1 ± 2.8 h
